Measured values from US9345791B2, “Ligands for targeting of S1P receptors for in vivo imaging and treatment of diseases” (Westfaelische Wilhelms-Universitaet Muenster, priority 2011, dated 2016).

What was measured:
[1] = tested on: Lymphocytes (T- and B-cells); assay: Immunosuppressive activity in vivo: peripheral blood lymphopenia, flow cytometry; parameters: species or system mice; conditions: for B cells / CD4+ / CD8+ / WBC: intraperitoneally at 1.25 microgramm/kg body weight, blood drawn 24 hours later; for WBC: peripheral blood; for immunosuppressive action / effectiveness (in words): summary of table 1 in text
Experimental: The compounds of the invention were tested for immunosuppressive biological activity in vivo based on the known ability of S1P analogues to induce peripheral blood lymphopenia due to lymphocyte trapping in secondary lymph organs. The immunosuppressive activity of compound 21 (555558) and of compound 27 (555890) was compared with the corresponding activity a non-fluorinated analogue compound 7 (5551091), and non-ω (or close to ω)-fluorinated compounds (compounds 8 (555535) and 12 (555517)) as well as with FTY720 as a standard. The compounds were injected intraperitoneally at 1.25 microgramm/kg body weight in a total volume of 200 microliter. 24 hours later, blood was drawn from the retroorbital plexus in 17.8 mM EDTA as an anti-coagulant. Lymphocytes (T- and B-cells) were analyzed by flow cytometry as following: After lysis of red blood cells by BD Pharm Lyse (Becton Dickinson) in 50 microliter blood, cells were washed, resuspended in 100 microliter FACS buffer (1% BSA in PBS), and antibodies to CD4, CD8 and B220 (Becton Dickinson) were added (1 microliter antibody per sample each) for 30 minutes at room temperature. After 3 washes, cells were then analyzed by flow cytometry in a Gallios Beckman Coulter flow cytometer.

[2] = tested on: G-protein-coupled cell surface receptors (S1PR) designated S1P1-5; conditions: cited from earlier work

SMILES | B cells ([1]; cell count) | CD4+ ([1]; cell count) | CD8+ ([1]; cell count) | B cells ([1]; percentage) | CD4+ ([1]; percentage) | CD8+ ([1]; percentage) | WBC [1] | Kd [2] | melting point | immunosuppressive action / effectiveness (in words) [1]
CCC/C=C(\F)CC(N)COP(=O)(O)O (stereo not shown) [Compound B1087] | 2.49 10^6/mL | 0.42 10^6/mL | 0.59 10^6/mL | 35.20% | 5.90% | 8.40% | 7.06 10^6/mL |  |  | 
CCC/C=C/CC(N)COP(=O)(O)O (stereo not shown) [Compound B1088] | 2.76 10^6/mL | 0.34 10^6/mL | 0.49 10^6/mL | 38.60% | 4.80% | 6.90% | 7.15 10^6/mL |  |  | 
CCCCCCCCCCCCC/C=C/[C@@H](O)[C@@H](N)COP(=O)(O)O [Compound S1P, Sphingosine-1-phosphate] |  |  |  |  |  |  |  | 8 to 20 nM |  | 
CCCCCCCCc1ccc(CCC(N)(CO)CO)cc1 [FTY 720, 2-Amino-2-(4-octylphenethyl)propane-1,3-diol, reference compound] | 0.61 10^6/mL | 0.02 10^6/mL | 0.04 10^6/mL | 20.08% | 1.10% | 0.30% | 3.69 10^6/mL |  |  | 
CCC/C=C/CC(N)CO (stereo not shown) [SSS182] | 2.91 10^6/mL | 0.43 10^6/mL | 0.48 10^6/mL | 42.20% | 6.30% | 7.00% | 6.90 10^6/mL |  |  | 
CCCCCCCCCCCCCCC(F)CC(N)(CO)CO (stereo not shown) [SSS517, 2-Amino-2-(2-fluorohexadecyl)propan-1,3-diol] | 4.81 10^6/mL | 0.54 10^6/mL | 0.60 10^6/mL | 42.40% | 4.80% | 5.30% | 11.35 10^6/mL |  | 96 to 98 °C | very moderate immunosuppressive action
CCCCCCCCCCCCCCCCC(N)(CO)CF (stereo not shown) [SSS535, 2-Amino-2-(fluoromethyl)octadecan-1-ol] | 3.54 10^6/mL | 0.42 10^6/mL | 0.39 10^6/mL | 50.20% | 6.00% | 5.50% | 7.05 10^6/mL |  | 52 °C | diminishes effectiveness
NC(CO)(CO)CCCCCCCCCCCCCCCCF [SSS558, 2-Amino-2-(16-fluorohexadecyl)propan-1,3-diol] | 1.52 0.04 10^6/mL | 0.15 0.08 10^6/mL | 0.13 0.04 10^6/mL |  |  |  | 3.74 0.70 10^6/mL |  | 77 °C | 
CCCCCCCCCCCCCCC(F)CC(N)(CO)CO.Cl (stereo not shown) [SSS564, 2-Amino-2-(2-fluorohexadecyl)propan-1,3-diol hydrochloride] | 5.52 10^6/mL | 0.65 10^6/mL | 0.98 10^6/mL | 42.20% | 5.00% | 7.50% | 13.07 10^6/mL |  | 108 to 110 °C | 
CCCCCCCCCCCCC/C=C/CC(N)(CO)CO [SSS822, (E)-2-Amino-2-(hexadec-2-en-1-yl)propane-1,3-diol] | 1.17 0.33 10^6/mL | 0.10 0.01 10^6/mL | 0.12 0.05 10^6/mL |  |  |  | 5.02 1.04 10^6/mL |  | 57 °C | 
CN(C)c1cccc2c(S(=O)(=O)NCCCCCCCCCCCCCCCCC(N)(CO)CO)cccc12 [SSS846, N-(17-Amino-18-hydroxy-17-(hydroxymethyl)octadecyl)-5-(dimethylamino)naphthalene-1-sulfonamide] | 5.32 10^6/mL | 0.98 10^6/mL | 0.52 10^6/mL | 57.30% | 10.60% | 5.60% | 9.28 10^6/mL |  | 72 to 75 °C | 
CCCCCCCCCCCCC/C=C(\F)CC(N)(CO)CO [SSS862, (Z)-2-Amino-2-(2-fluorohexadec-2-en-1-yl)propane-1,3-diol] | 3.23 10^6/mL | 0.27 10^6/mL | 0.41 10^6/mL | 60.90% | 5.00% | 7.80% | 5.31 10^6/mL |  | 68 to 70 °C | 
CCCCCCCCCCCCC/C=C(/F)CC(N)(CO)CO [SSS864, (E)-2-Amino-2-(2-fluorohexadec-2-en-1-yl)propane-1,3-diol] | 3.41 10^6/mL | 0.28 10^6/mL | 0.37 10^6/mL | 64.70% | 5.40% | 7.00% | 5.27 10^6/mL |  | 74 °C | 
NC(CO)(CO)CCCCCCCCCCCCCCCF [SSS890, 2-Amino-2-(15-fluoropentadecyl)propane-1,3-diol] |  |  |  |  |  |  |  |  | 85 °C | 
CCCCCCCCCCCCCCC(N)(CO)CO [SSS943, 2-Amino-2-tetradecylpropane-1,3-diol] | 0.60 10^6/mL | 0.04 10^6/mL | 0.04 10^6/mL | 35.21% | 2.25% | 2.35% | 1.73 10^6/mL |  |  | 
CCCCCCCCCCCCCCCCC(N)(CO)CO [SSS1091, 2-Amino-2-hexadecylpropane-1,3-diol] | 1.27 0.26 10^6/mL | 0.09 0.02 10^6/mL | 0.08 0.01 10^6/mL |  |  |  | 4.14 0.60 10^6/mL |  |  | 
CCCCCCCCc1ccc(C(O)CC(N)(CO)CO)cc1 (stereo not shown) [SSS 563, 3-Amino-3-(hydroxymethyl)-1-(4-octylphenyl)butane-1,4-diol] |  |  |  |  |  |  |  |  | 74 to 76 °C | 
NC(CO)(CO)CCc1ccc(CCCCCCF)cc1 [SSS 944, 2-Amino-2-(4-(6-fluorohexyl)phenethyl)propane-1,3-diol] |  |  |  |  |  |  |  |  | 108 °C | 
